Molecules are shown by their SMILES. ≈ marks a conversion by molar mass, not a printed value. Like-named read-outs stand apart in the source and are kept apart here. Starred links: 1 amine or outer side, 2 acyl side, 3 side chain; linkers in the order of their positions; H or OH if unused. Non-standard residues stand in square brackets, D forms with d. Residues, ends and D or L forms follow the SMILES beside them. Groups on a side chain read outwards from the residue. *: point of attachment. X5 = CCCCCCCCCCCCCCCC(=O)N[C@@H](CCC(=O)N[C@@H](CCC(=O)N[C@@H](CCC(=O)NCCCOCCOCCOCCCNC(=O)CCC(=O)NCCCOCCOCCOCCCNC(=O)CCC(=O)NCCCOCCOCCOCCCNC(=O)CCC(=O)NCCCOCCOCCOCCCN*)C(=O)O)C(=O)O)C(=O)O; X1 = CCCCCCCCCCCCCCCC(=O)N[C@@H](CCC(=O)N[C@@H](CCC(=O)N[C@@H](CCC(=O)NCCCOCCOCCOCCCNC(=O)CCC(=O)NCCCOCCOCCOCCCNC(=O)CCC(=O)NCCCOCCOCCOCCCN*)C(=O)O)C(=O)O)C(=O)O; γGlu = O=C(O)[C@H](CCC(=O)[*:2])N[*:1]; Stearoyl = CCCCCCCCCCCCCCCCCC(=O)*; Suc = O=C(CCC(=O)[*:2])[*:1]; αMeK = C[C@](N)(CCCCN)C(=O)O; AEEA = NCCOCCOCC(=O)O; Aib = CC(C)(N)C(=O)O

Among the data in patent US11725036B2, “Modified lipidated relaxin B chain peptides and their therapeutic use” (Sanofi, priority 2018, dated 2023) are EC50, Emax and solubility values, retold here.

One data set addresses T1, RXFP1 (Homo sapiens, UniProt Q9HBX9).
T1 construct: OVCAR5 cells expressing endogenous RXFP1; endogenous in cells; host or cells: OVCAR5
T1 sequence (Q9HBX9 1-757): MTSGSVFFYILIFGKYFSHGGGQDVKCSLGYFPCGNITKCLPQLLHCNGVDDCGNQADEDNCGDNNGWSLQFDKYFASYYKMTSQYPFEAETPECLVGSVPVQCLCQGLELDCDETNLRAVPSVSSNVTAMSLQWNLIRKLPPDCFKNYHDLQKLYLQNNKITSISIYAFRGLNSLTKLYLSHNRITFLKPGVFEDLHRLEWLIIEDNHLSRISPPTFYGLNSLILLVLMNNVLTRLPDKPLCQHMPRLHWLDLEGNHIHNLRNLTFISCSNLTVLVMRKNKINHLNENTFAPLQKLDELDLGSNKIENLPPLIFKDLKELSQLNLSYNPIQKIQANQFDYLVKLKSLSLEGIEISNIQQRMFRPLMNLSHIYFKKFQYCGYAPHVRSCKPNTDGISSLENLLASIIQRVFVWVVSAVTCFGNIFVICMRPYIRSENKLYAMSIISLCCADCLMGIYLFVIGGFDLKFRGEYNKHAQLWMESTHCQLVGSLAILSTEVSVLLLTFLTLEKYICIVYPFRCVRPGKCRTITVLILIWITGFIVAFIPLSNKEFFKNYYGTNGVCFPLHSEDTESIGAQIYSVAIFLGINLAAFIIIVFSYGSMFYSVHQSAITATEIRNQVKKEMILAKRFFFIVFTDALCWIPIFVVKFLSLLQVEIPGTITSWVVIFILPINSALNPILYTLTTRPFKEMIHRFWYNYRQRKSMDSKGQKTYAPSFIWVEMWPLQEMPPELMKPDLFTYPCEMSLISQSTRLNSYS
As to the kind of experiment: OVCAR5 cAMP assay (HTRF). Format: cell-based. Particulars: for EC50: OVCAR 5 cells expressing endogenous RXFP1, cAMP readout; for Emax: OVCAR 5 cells, maximal cAMP relative to H2-relaxin. Summed up:
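Endogenous RXFP1 in OVCAR5 cells, pretreated 40 min at 37° C with 1 mM IBMX, then exposed to increasing peptide concentrations in serum-free medium for 30 min at 37° C. cAMP read by HTRF; EC50 by variable-slope sigmoidal fit, Emax as % of H2-relaxin maximal cAMP in same run.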
A general note: Changes in cAMP serve as a functional read-out for many G protein-coupled receptors.

Data set [1] in a line: Solubility testing in buffer. It counts as physicochemical. Particulars: target solubility 10.0 mg/ml. Here is the method: Prior to the testing of solubility of a peptide batch, its purity (HPLC-UV) was determined.
Acetate Buffer 50 mM pH4.5: 0.75 g C2H3C02Na,3H2O (Sigma S7545)+0.35 ml CH3CO2H 100% solution dissolved in Millipore water, adjusted to pH with diluted (1:1) CH3CO2H and diluted to 250 ml with Millipore water.
In a 4 ml Ependorph vial, an accurately weighed sample of compound was diluted in study media to obtain target concentration of 2, 6 or 10 mg/ml of pure compound. The sample vials were shacked (rock 'roll shaker) for ˜19 h. 300 μL aliquots were filtered through a Millipore “Solvinert” plate (0.45 μm-PTFE hydrophilic).
pH was measured with a micro electrode
Waters Acquity UPLC System with DAD detector
Column: Waters Peptide Column CSH C18 (130 Å; 1.7 μm; 50*2.1 mm)
Column temperature: 60° C.
Full loop (about 5 μL)—overfill factor 5
Weak et Strong wash: H2O/ACN (75/25; V/V); Seal wash: H2O/IsOH (95/5; V/V). Mobile phase:
Solvent A: 0.05% TFA in H2O; Solvent B: 0.035% TFA in CH3CN
Gradient: from 0 to 12 min B=2% to 60%, from 12 to 14 min B=60% to 100%. Column washing 100% B 1 min, column equilibration 2% B 2.5 min.
UV detector: wavelength: 220 nm.

The mark [2] stands for this setting: acetate buffer 50 mM pH 4.5, read-out: Solubility Acetate buffer pH 4.5.
[3] abbreviates: phosphate buffer 50 mM pH 7.4, read-out: Solubility phosphate buffer pH 7.4.

Broadly, the EC50 is the midpoint of the concentration-response curve. The low end stands for an effect from little substance, the high end for a need for much substance. A word on the Emax: it is the size of the effect at its maximum, as opposed to the concentration needed. The term solubility denotes the dissolved amount per volume that the medium holds. At RXFP1, `CCCCCCCCCCCCCCCC(=O)N[C@@H](CCC(=O)N[C@@H](CCC(=O)N[C@@H](CCC(=O)NCCCOCCOCCOCCCNC(=O)CCC(=O)NCCCOCCOCCOCCCNC(=O)CCC(=O)NCCCOCCOCCOCCCNC(=O)CCC(=O)NCCCC[C@H](NC(=O)CNC(=O)[C@H](CCC(=O)O)NC(=O)C(C)(C)NC(=O)C(C)(C)NC(=O)[C@@H](NC(=O)[C@H](CCCCNC(C)=O)NC(=O)[C@H](C)NC(=O)[C@H](CCCNC(=N)N)NC(=O)[C@@H](NC(=O)[C@H](CC(C)C)NC(=O)[C@H](CCC(=O)O)NC(=O)[C@H](CCCNC(=N)N)NC(=O)CNC(=O)[C@H](CCC(=O)O)NC(=O)[C@H](CC(C)C)NC(C)=O)C(C)C)[C@@H](C)CC)C(=O)N[C@@H](CO)C(=O)N[C@H](C(=O)N[C@@H](Cc1ccccc1)C(=O)N[C@@H](CO)C(=O)N[C@@](C)(CCCCN)C(=O)N[C@@H](CCCNC(=N)N)C(=O)N[C@@H](C)C(=O)N[C@@H](CCCCNC(C)=O)C(N)=O)[C@@H](C)O)C(=O)O)C(=O)O)C(=O)O` [compound 23] (Ac-LEGRELVRAK(Ac)I[Aib][Aib]EGK([Suc-X1])STFS[αMeK]RAK(Ac)-NH2) came in with an EC50 of 11.1 nM and an Emax of 92%. Moreover, the solubility in data set [1] (setting [2]) worked out at 550 µg/mL (≈ 127 µM). Besides, the solubility in data set [1] (setting [3]) turned out to be 6770 µg/mL (≈ 1560 µM).
At RXFP1, `CCCCCCCCCCCCCCCC(=O)N[C@@H](CCC(=O)N[C@@H](CCC(=O)N[C@@H](CCC(=O)NCCCOCCOCCOCCCNC(=O)CCC(=O)NCCCOCCOCCOCCCNC(=O)CCC(=O)NCCCOCCOCCOCCCNC(=O)CCC(=O)NCCCOCCOCCOCCCNC(=O)CCC(=O)NCCCC[C@H](NC(=O)CNC(=O)[C@H](CCC(=O)O)NC(=O)[C@@H](NC(=O)C(C)(C)NC(=O)[C@@H](NC(=O)[C@H](CCCCNC(C)=O)NC(=O)[C@H](C)NC(=O)[C@H](CCCNC(=N)N)NC(=O)[C@@H](NC(=O)[C@H](CCCCN)NC(=O)[C@H](CCC(=O)O)NC(=O)[C@H](CCCNC(=N)N)NC(=O)CNC(=O)[C@H](CCC(=O)O)NC(=O)[C@H](CC(C)C)NC(C)=O)C(C)C)[C@@H](C)CC)[C@@H](C)CC)C(=O)N[C@@H](CO)C(=O)N[C@H](C(=O)N[C@@H](Cc1c[nH]c2ccccc12)C(=O)N[C@@H](CO)C(=O)NC(C)(C)C(=O)N[C@@H](CCCNC(=N)N)C(=O)N[C@@H](CCCCN)C(=O)N[C@@H](CCCCNC(C)=O)C(N)=O)[C@@H](C)O)C(=O)O)C(=O)O)C(=O)O` [compound 74] (Ac-LEGREKVRAK(Ac)I[Aib]IEGK([Suc-X5])STWS[Aib]RKK(Ac)-NH2) returned a concentration for a half-maximal effect (EC50) of 0.54 nM and an Emax of 94%. In addition, the solubility in data set [1] (setting [2]) was 7390 µg/mL (≈ 1560 µM). Moreover, the solubility in data set [1] (setting [3]) was 8470 µg/mL (≈ 1790 µM).
Taken in the same sequence, the figures for `CCCCCCCCCCCCCCCCCC(=O)N[C@@H](CCC(=O)N[C@@H](CCC(=O)N[C@@H](CCC(=O)NCCOCCOCC(=O)NCCOCCOCC(=O)NCCOCCOCC(=O)NCCOCCOCC(=O)NCCCC[C@H](NC(=O)CNC(=O)[C@H](CCC(=O)O)NC(=O)C(C)(C)NC(=O)C(C)(C)NC(=O)[C@@H](NC(=O)[C@H](CCCCNC(C)=O)NC(=O)[C@H](C)NC(=O)[C@H](CCCNC(=N)N)NC(=O)[C@@H](NC(=O)[C@H](CCCCN)NC(=O)[C@H](CCC(=O)O)NC(=O)[C@H](CCCNC(=N)N)NC(=O)CNC(=O)[C@H](CCC(=O)O)NC(=O)[C@H](CC(C)C)NC(C)=O)C(C)C)[C@@H](C)CC)C(=O)N[C@@H](CO)C(=O)N[C@H](C(=O)N[C@@H](Cc1ccccc1)C(=O)N[C@@H](CO)C(=O)N[C@@](C)(CCCCN)C(=O)N[C@@H](CCCNC(=N)N)C(=O)N[C@@H](C)C(=O)N[C@@H](CCCCNC(C)=O)C(N)=O)[C@@H](C)O)C(=O)O)C(=O)O)C(=O)O` [compound 26] (Ac-LEGREKVRAK(Ac)I[Aib][Aib]EGK([AEEA-AEEA-AEEA-AEEA-γGlu-γGlu-γGlu-Stearoyl])STFS[αMeK]RAK(Ac)-NH2) were 0.43 nM, 96%, 6680 µg/mL (≈ 1640 µM) and 6760 µg/mL (≈ 1660 µM).
